Like-named read-outs stand apart in the source and are kept apart here.
Experiments:
velvetleaf = assay: Test B pre-/postemergence herbicide test; format: in vivo, Abutilon theophrasti; settings: Abutilon theophrasti, 336 h; for pest or weed control at 125 g/ha: 125 g ai/ha
Procedure, shortened: (§1)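 Visual rating, 0 (no effect) to 100 (complete control), versus untreated controls after 13–15 d in greenhouse. Pre- and postemergence applications (postemergence plants 2–18 cm, 1–4 leaves); flooded paddy arm at 2-leaf stage. Compounds in non-phytotoxic solvent plus surfactant.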

[1] = system: small flower umbrella sedge; assay: Test B flooded paddy test; format: in vivo, Cyperus difformis; settings: Cyperus difformis, 336 h, 1000 g ai/ha, visual rating, scale 0 to 100 (0 no effect, 100 complete control), 13 to 15 days, read-out: Sedge, Umbrella plant response rating
Procedure, shortened: (§2)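 After treating 2-leaf paddy plants or 2–18 cm postemergence plants (1 to 4 leaves) with formulated chemical, researchers kept them in a greenhouse for 13–15 days. Effects were judged visually versus controls: 0 indicates none, 100 total control.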

cocklebur = assay: Test B pre-/postemergence herbicide test; format: in vivo, Xanthium strumarium; settings: Xanthium strumarium; for pest or weed control at 500 g/ha: 500 g ai/ha; for pest or weed control at 125 g/ha: 125 g ai/ha
Procedure, shortened: (§3)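 Flooded paddy rice and barnyardgrass were treated at the 2-leaf stage; upland plantings received compound either on sown seed or on 1- to 4-leaf seedlings. All were kept 13–15 days in a greenhouse and scored visually, 0–100, relative to untreated plants.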

barnyardgrass = assay: Test B pre-/postemergence herbicide test; format: in vivo, Echinochloa crus-galli; settings: Echinochloa crus-galli; for pest or weed control at 500 g/ha: 500 g ai/ha; for pest or weed control at 125 g/ha: 125 g ai/ha
Procedure, shortened: as §3

large crabgrass = assay: Test B pre-/postemergence herbicide test; format: in vivo, Digitaria sanguinalis; settings: Digitaria sanguinalis; for pest or weed control at 500 g/ha: 500 g ai/ha; for pest or weed control at 125 g/ha: 125 g ai/ha
Procedure, shortened: as §1

giant foxtail = assay: Test B pre-/postemergence herbicide test; format: in vivo, Setaria faberi; settings: Setaria faberi, 336 h; for pest or weed control at 500 g/ha: 500 g ai/ha; for pest or weed control at 125 g/ha: 125 g ai/ha
Procedure, shortened: as §1

corn = assay: Test B pre-/postemergence herbicide test; format: in vivo, Zea mays; settings: Zea mays
Procedure, shortened: as §1

Surinam grass = assay: Test B pre-/postemergence herbicide test; format: in vivo, Urochloa decumbens; settings: Urochloa decumbens; for pest or weed control at 125 g/ha: 125 g ai/ha
Procedure, shortened: as §1

rice = assay: Test B flooded paddy test; format: in vivo, Oryza sativa; settings: Oryza sativa, 336 h, 1000 g ai/ha, visual rating, scale 0 to 100 (0 no effect, 100 complete control), 13 to 15 days, read-out: Rice plant response rating
Procedure, shortened: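 Read-out: visual comparison with controls, scored 0 to 100, where 100 means complete control and 0 no effect. Formulated chemicals were applied postemergence to plants 2–18 cm tall (1- to 4-leaf), or to flooded-paddy plants at the 2-leaf stage, then held 13 to 15 days under glass.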

morningglory = assay: Test B pre-/postemergence herbicide test; format: in vivo, Ipomoea coccinea; settings: Ipomoea, 336 h; for pest or weed control at 125 g/ha: 125 g ai/ha
Procedure, shortened: as §3

pigweed = assay: Test B pre-/postemergence herbicide test; format: in vivo, Amaranthus retroflexus; settings: Amaranthus retroflexus, 336 h; for pest or weed control at 125 g/ha: 125 g ai/ha
Procedure, shortened: as §1

ducksalad = assay: Test B flooded paddy test; format: in vivo, Heteranthera limosa; settings: Heteranthera limosa, 336 h, 1000 g ai/ha, visual rating, scale 0 to 100 (0 no effect, 100 complete control), 13 to 15 days, read-out: Ducksalad plant response rating
Procedure, shortened: as §2

wild oat = assay: Test B postemergence herbicide test; format: in vivo, Avena fatua; settings: scale 0 (no effect) to 100 (complete control)
Procedure, shortened: as §2

blackgrass = assay: Test B postemergence herbicide test; format: in vivo, Alopecurus myosuroides; settings: scale 0 (no effect) to 100 (complete control)
Procedure, shortened: as §2

wheat = assay: Test B postemergence herbicide test; format: in vivo, Triticum aestivum; settings: scale 0 (no effect) to 100 (complete control)
Procedure, shortened: as §2

[2] = Postemergence, 500 g ai/ha, visual rating after 13 to 15 days

CCOC(=O)c1cccc(NC(=O)c2cc(C(C)(C)C)nn2CC)c1 [Compound 80, ethyl 3-[[[3-(1,1-dimethylethyl)-1-ethyl-1H-pyrazol-5-yl]carbonyl]-amino]benzoate]
pest or weed control at 500 g/ha (velvetleaf; post-emergence, Postemergence, 500 g ai/ha, visual rating after 13 to 15 days, scale 0 (no effect) to 100 (complete control), read-out: Plant response rating, Velvetleaf): 100%
pest or weed control at 125 g/ha (velvetleaf; post-emergence, postemergence, visual rating, scale 0 (no effect) to 100 (complete control), read-out: Velvetleaf plant response rating): 90%
pest or weed control at 125 g/ha (velvetleaf; pre-emergence, preemergence, 0 to 100 scale, 0 is no effect, 100 is complete control, read-out: Plant response rating, Velvetleaf): 20%
pest or weed control at 1000 g/ha [1]: 80%
pest or weed control at 500 g/ha (cocklebur; post-emergence, Postemergence, visual rating after 13 to 15 days, scale 0 (no effect) to 100 (complete control), read-out: Plant response rating, Cocklebur): 100%
pest or weed control at 125 g/ha (cocklebur; post-emergence, postemergence, visual rating, scale 0 (no effect) to 100 (complete control), read-out: Cocklebur plant response rating): 70%
pest or weed control at 500 g/ha (cocklebur; pre-emergence, Preemergence, scale 0 to 100, read-out: Cocklebur plant response rating): 0%
pest or weed control at 125 g/ha (cocklebur; pre-emergence, preemergence, 0 to 100 scale, 0 is no effect, 100 is complete control, read-out: Plant response rating, Cocklebur): 0%
pest or weed control at 500 g/ha (barnyardgrass; post-emergence, Postemergence, visual rating after 13 to 15 days, scale 0 (no effect) to 100 (complete control), read-out: Plant response rating, Barnyardgrass): 90%
pest or weed control at 125 g/ha (barnyardgrass; post-emergence, postemergence, visual rating, scale 0 (no effect) to 100 (complete control), read-out: Barnyardgrass plant response rating): 80%
pest or weed control at 500 g/ha (barnyardgrass; pre-emergence, Preemergence, scale 0 to 100, read-out: Barnyardgrass plant response rating): 20%
pest or weed control at 125 g/ha (barnyardgrass; pre-emergence, preemergence, 0 to 100 scale, 0 is no effect, 100 is complete control, read-out: Plant response rating, Barnyardgrass): 0%
pest or weed control at 500 g/ha (large crabgrass; post-emergence, Postemergence, visual rating after 13 to 15 days, scale 0 (no effect) to 100 (complete control), read-out: Plant response rating, Crabgrass, Large): 100%
pest or weed control at 125 g/ha (large crabgrass; post-emergence, postemergence, visual rating, scale 0 (no effect) to 100 (complete control), read-out: Crabgrass, Large plant response rating): 100%
pest or weed control at 500 g/ha (large crabgrass; pre-emergence, Preemergence, scale 0 to 100, read-out: Crabgrass, Large plant response rating): 0%
pest or weed control at 125 g/ha (large crabgrass; pre-emergence, preemergence, 0 to 100 scale, 0 is no effect, 100 is complete control, read-out: Plant response rating, Crabgrass, Large): 0%
pest or weed control at 500 g/ha (giant foxtail; post-emergence, Postemergence, visual rating after 13 to 15 days, scale 0 (no effect) to 100 (complete control), read-out: Plant response rating, Foxtail, Giant): 90%
pest or weed control at 125 g/ha (giant foxtail; post-emergence, postemergence, visual rating, scale 0 (no effect) to 100 (complete control), read-out: Foxtail, Giant plant response rating): 50%
pest or weed control at 500 g/ha (giant foxtail; pre-emergence, Preemergence, scale 0 to 100, read-out: Foxtail, Giant plant response rating): 70%
pest or weed control at 125 g/ha (giant foxtail; pre-emergence, preemergence, 0 to 100 scale, 0 is no effect, 100 is complete control, read-out: Plant response rating, Foxtail, Giant): 20%
Corn plant response rating (crop injury, 0 = no effect, 100 = complete kill) at 500 g/ha (corn; post-emergence, Postemergence, 500 g ai/ha, visual rating after 13 to 15 days, scale 0 (no effect) to 100 (complete control)): 50%
plant injury at 125 g/ha (corn; post-emergence, postemergence, 125 g ai/ha, visual rating, scale 0 (no effect) to 100 (complete control), read-out: Corn plant response rating): 20%
plant injury at 500 g/ha (corn; pre-emergence, Preemergence, 500 g ai/ha, scale 0 to 100, read-out: Corn plant response rating): 10%
Corn plant response rating (crop injury, 0 = no effect, 100 = complete kill) at 125 g/ha (corn; pre-emergence, preemergence, 125 g ai/ha, 0 to 100 scale, 0 is no effect, 100 is complete control): 0%
pest or weed control at 500 g/ha (Surinam grass; post-emergence, Postemergence, 500 g ai/ha, visual rating after 13 to 15 days, scale 0 (no effect) to 100 (complete control), read-out: Plant response rating, Surinam Grass): 90%
pest or weed control at 125 g/ha (Surinam grass; post-emergence, postemergence, visual rating, scale 0 (no effect) to 100 (complete control), read-out: Surinam Grass plant response rating): 90%
pest or weed control at 125 g/ha (Surinam grass; pre-emergence, preemergence, 0 to 100 scale, 0 is no effect, 100 is complete control, read-out: Plant response rating, Surinam Grass): 0%
plant injury at 1000 g/ha (rice): 60%
pest or weed control at 500 g/ha (morningglory; post-emergence, Postemergence, 500 g ai/ha, visual rating after 13 to 15 days, scale 0 (no effect) to 100 (complete control), read-out: Plant response rating, Morningglory): 100%
pest or weed control at 125 g/ha (morningglory; post-emergence, postemergence, visual rating, scale 0 (no effect) to 100 (complete control), read-out: Morningglory plant response rating): 100%
pest or weed control at 125 g/ha (morningglory; pre-emergence, preemergence, 0 to 100 scale, 0 is no effect, 100 is complete control, read-out: Plant response rating, Morningglory): 0%
pest or weed control at 500 g/ha (pigweed; post-emergence, Postemergence, 500 g ai/ha, visual rating after 13 to 15 days, scale 0 (no effect) to 100 (complete control), read-out: Plant response rating, Pigweed): 100%
pest or weed control at 125 g/ha (pigweed; post-emergence, postemergence, visual rating, scale 0 (no effect) to 100 (complete control), read-out: Pigweed plant response rating): 100%
pest or weed control at 125 g/ha (pigweed; pre-emergence, preemergence, 0 to 100 scale, 0 is no effect, 100 is complete control, read-out: Plant response rating, Pigweed): 0%
pest or weed control at 1000 g/ha (ducksalad): 90%
pest or weed control at 125 g/ha (wild oat; Avena fatua, post-emergence, 336 h, postemergence, 125 g ai/ha, visual rating, read-out: Oat, Wild plant response rating): 30%
Plant response rating, Oat, Wild (wild oat; [2]): 50
pest or weed control at 125 g/ha (blackgrass; Alopecurus myosuroides, post-emergence, 336 h, postemergence, 125 g ai/ha, visual rating, read-out: Blackgrass plant response rating): 20%
Plant response rating, Blackgrass (blackgrass; [2]): 40
Plant response rating, Wheat (wheat; [2]): 30
plant injury at 125 g/ha (wheat; Triticum aestivum, post-emergence, 336 h, postemergence, 125 g ai/ha, visual rating, read-out: Wheat plant response rating): 20%

From US20060069132A1, “Azolecarboxamide herbicides” (priority 2004, published 2006)
